Article PMC4753070 (Bioorganic & medicinal chemistry letters, 2016)
Entries after “also recorded” stand apart in the source; their conditions may differ.

How the values were obtained:
[1] = system: histone H3K9 acetylation in mouse forebrain primary neuronal cultures; experiment: Neuronal histone acetylation assay, H3K9ac immunofluorescence; format: cell-based; conditions: 1 and 10 μM, 24 hrs, relative to SAHA
[2] = system: histone H4K12 acetylation in mouse forebrain primary neuronal cultures; experiment: Neuronal histone acetylation assay, H4K12ac immunofluorescence; format: cell-based; conditions: 1 and 10 μM, 24 hrs, relative to SAHA
[3] = system: recombinant human HDAC1-3; experiment: In vitro HDAC1-3 inhibition, potency comparison across the three isoforms; format: biochemical
[4] = mouse, intraperitoneal 25 mg/kg; cited from earlier work
HDAC5 = HDAC5 (Homo sapiens, UniProt Q9UQL6); experiment: In vitro HDAC5; format: biochemical
[5] = Mouse plasma pharmacokinetics and brain-to-plasma ratio; format: in vivo

HDAC5, sequence (Q9UQL6 whole entry, species assumed): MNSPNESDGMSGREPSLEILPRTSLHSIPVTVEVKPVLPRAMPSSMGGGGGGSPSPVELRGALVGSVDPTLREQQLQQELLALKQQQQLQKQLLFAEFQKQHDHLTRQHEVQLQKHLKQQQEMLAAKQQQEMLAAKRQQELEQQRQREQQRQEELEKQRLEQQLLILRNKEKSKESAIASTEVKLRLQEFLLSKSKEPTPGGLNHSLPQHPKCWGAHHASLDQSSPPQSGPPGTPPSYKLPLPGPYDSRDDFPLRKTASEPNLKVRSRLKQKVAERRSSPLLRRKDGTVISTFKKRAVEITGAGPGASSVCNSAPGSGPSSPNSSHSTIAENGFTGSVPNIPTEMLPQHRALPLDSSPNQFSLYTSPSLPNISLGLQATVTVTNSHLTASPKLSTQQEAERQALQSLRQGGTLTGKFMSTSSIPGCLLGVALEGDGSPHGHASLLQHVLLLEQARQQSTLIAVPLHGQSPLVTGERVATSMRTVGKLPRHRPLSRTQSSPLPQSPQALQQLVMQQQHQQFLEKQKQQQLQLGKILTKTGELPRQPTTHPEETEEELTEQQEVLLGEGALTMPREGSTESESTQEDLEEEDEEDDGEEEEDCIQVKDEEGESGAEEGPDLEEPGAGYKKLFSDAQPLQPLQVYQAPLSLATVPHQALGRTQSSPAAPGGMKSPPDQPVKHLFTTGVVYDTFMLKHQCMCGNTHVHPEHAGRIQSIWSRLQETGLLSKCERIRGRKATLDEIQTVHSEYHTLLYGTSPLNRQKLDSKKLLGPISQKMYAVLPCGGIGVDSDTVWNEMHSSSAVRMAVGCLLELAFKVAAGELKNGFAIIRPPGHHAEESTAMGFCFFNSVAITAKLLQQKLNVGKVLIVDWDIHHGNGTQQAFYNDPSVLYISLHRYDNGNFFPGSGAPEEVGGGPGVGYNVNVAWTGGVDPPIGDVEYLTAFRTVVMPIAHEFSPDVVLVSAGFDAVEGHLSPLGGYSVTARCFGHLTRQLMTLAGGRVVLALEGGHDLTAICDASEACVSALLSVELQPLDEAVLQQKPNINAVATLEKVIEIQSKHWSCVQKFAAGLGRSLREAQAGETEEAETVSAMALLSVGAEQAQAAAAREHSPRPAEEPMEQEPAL

| SMILES | induction of histone H3K9 acetylation (H3K9ac) [1] | induction of histone H4K12 acetylation (H4K12ac) [2] | other results |
| --- | --- | --- | --- |
| NNC(=O)CCCCC(=O)NO [Compound 3a] | No induction | No induction | – |
| NNC(=O)CCCCCC(=O)NO [Compound 3b] | No induction | No induction | – |
| NNC(=O)CCCCCCC(=O)NO [Compound 7] | No induction | No induction | – |
| O=C(CCCCC(=O)N/N=C/c1ccc(-c2ccccc2)cc1)NO [Compound 9a] | – | – | fold increase in IC50's over those of crebinostat (9b) ([3]; HDAC1, 2 or 3): approximately 20 fold |
| O=C(CCCCCC(=O)N/N=C/c1ccc(-c2ccccc2)cc1)NO [Compound 9b, crebinostat] | greater increases; also recorded: more effective | greater increases; also recorded: more effective | fold reduction in IC50 versus SAHA ([3]; HDAC1, 2 or 3): > 5 fold; brain Cmax [4]: 60 nM; activity toward HDAC5 (HDAC5): no activity |
| O=C(CCCCCCC(=O)N/N=C/c1ccc(-c2ccccc2)cc1)NO [Compound 9c] | greater increases | greater increases | fold improved potency for inhibiting HDAC1-3 versus crebinostat (9b) ([3]; HDAC1-3, biochemical reaction): ~ 2 fold |
| O=C(CCCCCC(=O)N/N=C/c1ccc(-c2cccnc2)cc1)NO [Compound 9f, neurinostat] | most potent | most potent | plasma maximum concentration ([5]; intraperitoneal 25 mg/kg, peripheral blood): 1.9 µM; brain-to-plasma ratios relative to those measured for crebinostat (9b) ([5]; time points 0.5, 1 and 2 hours): about twice; activity toward HDAC5 (HDAC5): no activity |
| COc1ccc(Br)c(/C=N/NC(=O)CCCCCC(=O)NO)c1 [Compound 9j] | more effective | more effective | – |
| COc1cc(O)cc(OC)c1/C=N/NC(=O)CCCCCC(=O)NO [Compound 9k] | least potent | least potent | – |
